Test results as given in ChEMBL document CHEMBL5465560, “Selectivity Literature for EUbOPEN Chemogenomic Library” (2024).

Columns and labels:
[1] = molecular target: MAP kinase-activated protein kinase 2 (Homo sapiens, UniProt P49137); assay: Selectivity interaction (Millipore kinase profiler) EUB0000124b MAPKAPK2; settings: at 10 µM
[2] = molecular target: T1, Aurora kinase A (Homo sapiens) (UniProt O14965); assay: Selectivity interaction (KinomeScan (DiscoverX)) EUB0001079a STK6; settings: at 1 µM
T1 sequence (whole entry): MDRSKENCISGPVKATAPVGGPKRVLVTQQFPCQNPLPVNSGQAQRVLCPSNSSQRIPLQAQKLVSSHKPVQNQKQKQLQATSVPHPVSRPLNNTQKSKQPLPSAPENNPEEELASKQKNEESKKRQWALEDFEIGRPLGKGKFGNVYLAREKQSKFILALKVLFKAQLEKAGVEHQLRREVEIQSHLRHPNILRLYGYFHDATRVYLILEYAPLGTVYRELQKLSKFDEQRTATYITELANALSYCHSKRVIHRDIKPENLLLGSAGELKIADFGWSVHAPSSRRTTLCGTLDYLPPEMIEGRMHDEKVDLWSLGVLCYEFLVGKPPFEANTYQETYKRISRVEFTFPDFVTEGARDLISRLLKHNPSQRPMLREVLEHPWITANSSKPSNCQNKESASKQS

D(3) dopamine receptor = D(3) dopamine receptor (Homo sapiens, UniProt P35462); assay: Selectivity interaction (GPCR panel (PDSP screen)) EUB0001079a DRD3; settings: at 10 µM
[3] = molecular target: Serine/threonine-protein kinase B-raf (Homo sapiens) (UniProt P15056); assay: Selectivity interaction (Kinase panel (DSF assay)) EUB0001558a BRAF
[4] = molecular target: T2, Calcium/calmodulin-dependent protein kinase type IV (Homo sapiens) (UniProt Q16566); assay: Selectivity interaction (Kinase panel (KiNativ target engagement assay in Jurkat cells)) EUB0001635a CAMK4; format: cell-based; settings: Selectivity number of off-targets 0.0, Selectivity number of targets 233.0, Source Knowledge https://www.sciencedirect.com/science/article/pii/S2451945619300674?via%3Dihub, at 1 µM
T2 sequence (whole entry): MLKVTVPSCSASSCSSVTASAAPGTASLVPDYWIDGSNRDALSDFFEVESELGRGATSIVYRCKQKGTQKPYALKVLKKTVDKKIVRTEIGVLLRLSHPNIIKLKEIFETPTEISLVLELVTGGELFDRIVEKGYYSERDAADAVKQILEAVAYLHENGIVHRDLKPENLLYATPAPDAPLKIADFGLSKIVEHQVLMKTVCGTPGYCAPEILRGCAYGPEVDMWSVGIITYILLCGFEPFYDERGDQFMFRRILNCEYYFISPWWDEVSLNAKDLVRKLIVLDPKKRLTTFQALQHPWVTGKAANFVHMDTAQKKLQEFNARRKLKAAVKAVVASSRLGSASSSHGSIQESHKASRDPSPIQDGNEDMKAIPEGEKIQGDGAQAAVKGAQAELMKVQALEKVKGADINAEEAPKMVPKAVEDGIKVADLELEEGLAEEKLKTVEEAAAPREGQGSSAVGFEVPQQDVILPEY

[5] = molecular target: Calcium/calmodulin-dependent protein kinase type 1G (Homo sapiens) (UniProt Q96NX5); settings: at 10 µM
[6] = molecular target: Epidermal growth factor receptor (Homo sapiens, UniProt P00533); settings: at 10 µM
[7] = molecular target: Serine/threonine-protein kinase 35 (Homo sapiens) (UniProt Q8TDR2); assay: Selectivity interaction (KinomeScan (DiscoverX)) EUB0000092b STK35; settings: at 10 µM
[8] = molecular target: Rho-associated protein kinase 1 (Homo sapiens) (UniProt Q13464); assay: Selectivity interaction (KinomeScan (DiscoverX)) EUB0000618a ROCK1; settings: at 10 µM
[9] = molecular target: T3, Serine/threonine-protein kinase Nek9 (Homo sapiens) (UniProt Q8TD19); settings: at 10 µM
T3 sequence (whole entry): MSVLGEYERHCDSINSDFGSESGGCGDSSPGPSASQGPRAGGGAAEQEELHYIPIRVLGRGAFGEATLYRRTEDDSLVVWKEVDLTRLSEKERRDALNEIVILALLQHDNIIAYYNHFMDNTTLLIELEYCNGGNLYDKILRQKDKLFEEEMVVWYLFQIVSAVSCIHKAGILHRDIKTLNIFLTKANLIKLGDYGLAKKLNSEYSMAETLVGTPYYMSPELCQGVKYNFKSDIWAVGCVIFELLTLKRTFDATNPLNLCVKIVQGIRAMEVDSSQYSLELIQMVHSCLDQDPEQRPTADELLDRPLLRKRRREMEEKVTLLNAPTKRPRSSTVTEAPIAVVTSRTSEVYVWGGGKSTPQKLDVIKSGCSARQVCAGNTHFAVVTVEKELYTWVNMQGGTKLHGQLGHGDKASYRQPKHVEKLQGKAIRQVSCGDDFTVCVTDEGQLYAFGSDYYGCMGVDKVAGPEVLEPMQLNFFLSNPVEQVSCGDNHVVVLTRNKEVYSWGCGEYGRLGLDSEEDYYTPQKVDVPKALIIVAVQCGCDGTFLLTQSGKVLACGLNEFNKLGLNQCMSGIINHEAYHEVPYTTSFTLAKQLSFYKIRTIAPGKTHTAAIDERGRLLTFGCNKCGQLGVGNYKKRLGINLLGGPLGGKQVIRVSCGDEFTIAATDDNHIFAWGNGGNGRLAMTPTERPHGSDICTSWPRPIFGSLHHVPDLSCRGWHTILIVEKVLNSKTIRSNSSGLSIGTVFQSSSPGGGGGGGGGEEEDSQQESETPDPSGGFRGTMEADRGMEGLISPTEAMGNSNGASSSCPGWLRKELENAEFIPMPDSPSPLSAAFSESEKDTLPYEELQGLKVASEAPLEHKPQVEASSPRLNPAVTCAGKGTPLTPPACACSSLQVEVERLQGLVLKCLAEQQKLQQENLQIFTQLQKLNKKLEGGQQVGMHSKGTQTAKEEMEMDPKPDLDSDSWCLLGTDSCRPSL

[10] = molecular target: Tyrosine-protein kinase Fyn (Homo sapiens) (UniProt P06241); assay: Selectivity interaction (KinomeScan (DiscoverX)) EUB0000695a FYN; settings: at 100 nM
[11] = molecular target: Serine/threonine-protein kinase PAK 6 (Homo sapiens) (UniProt Q9NQU5); assay: Selectivity interaction (KinomeScan (DiscoverX)) EUB0000695a PAK6; settings: at 100 nM
[12] = molecular target: Interferon-induced, double-stranded RNA-activated protein kinase (Homo sapiens) (UniProt P19525); assay: Selectivity interaction (KinomeScan (DiscoverX)) EUB0000607a EIF2AK2; settings: at 10 µM
[13] = molecular target: Tyrosine-protein kinase FRK (Homo sapiens) (UniProt P42685); assay: Selectivity interaction (KinomeScan (DiscoverX)) EUB0000607a FRK; settings: at 10 µM
[14] = molecular target: Mitogen-activated protein kinase 9 (Homo sapiens, UniProt P45984); assay: Selectivity interaction (SelectScreen profiling (Invitrogen)) EUB0000607a MAPK9; settings: at 2 µM
[15] = molecular target: Amine oxidase [flavin-containing] A (Homo sapiens, UniProt P21397); assay: Selectivity interaction (Panel of non-epigenetic targets (kinases, GPCRs, ion channels, and transporters, Eurofins) ) EUB0000271b MAOA; settings: at 1 µM
Chain of Amine oxidase [flavin-containing] A (P21397 whole entry): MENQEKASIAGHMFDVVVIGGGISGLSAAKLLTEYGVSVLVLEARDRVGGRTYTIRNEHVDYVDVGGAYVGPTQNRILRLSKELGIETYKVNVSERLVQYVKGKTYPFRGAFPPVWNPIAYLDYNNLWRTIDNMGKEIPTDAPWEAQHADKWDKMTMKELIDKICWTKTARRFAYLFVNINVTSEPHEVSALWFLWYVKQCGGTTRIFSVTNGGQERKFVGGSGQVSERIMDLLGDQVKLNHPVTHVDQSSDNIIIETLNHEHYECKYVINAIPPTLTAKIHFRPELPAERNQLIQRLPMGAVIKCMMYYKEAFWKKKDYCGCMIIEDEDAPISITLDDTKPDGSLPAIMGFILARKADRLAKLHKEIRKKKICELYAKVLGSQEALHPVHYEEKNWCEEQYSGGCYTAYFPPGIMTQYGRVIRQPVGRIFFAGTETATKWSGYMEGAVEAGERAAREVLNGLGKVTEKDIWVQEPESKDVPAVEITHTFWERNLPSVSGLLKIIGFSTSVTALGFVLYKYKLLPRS

Chain of Epidermal growth factor receptor (P00533 whole entry): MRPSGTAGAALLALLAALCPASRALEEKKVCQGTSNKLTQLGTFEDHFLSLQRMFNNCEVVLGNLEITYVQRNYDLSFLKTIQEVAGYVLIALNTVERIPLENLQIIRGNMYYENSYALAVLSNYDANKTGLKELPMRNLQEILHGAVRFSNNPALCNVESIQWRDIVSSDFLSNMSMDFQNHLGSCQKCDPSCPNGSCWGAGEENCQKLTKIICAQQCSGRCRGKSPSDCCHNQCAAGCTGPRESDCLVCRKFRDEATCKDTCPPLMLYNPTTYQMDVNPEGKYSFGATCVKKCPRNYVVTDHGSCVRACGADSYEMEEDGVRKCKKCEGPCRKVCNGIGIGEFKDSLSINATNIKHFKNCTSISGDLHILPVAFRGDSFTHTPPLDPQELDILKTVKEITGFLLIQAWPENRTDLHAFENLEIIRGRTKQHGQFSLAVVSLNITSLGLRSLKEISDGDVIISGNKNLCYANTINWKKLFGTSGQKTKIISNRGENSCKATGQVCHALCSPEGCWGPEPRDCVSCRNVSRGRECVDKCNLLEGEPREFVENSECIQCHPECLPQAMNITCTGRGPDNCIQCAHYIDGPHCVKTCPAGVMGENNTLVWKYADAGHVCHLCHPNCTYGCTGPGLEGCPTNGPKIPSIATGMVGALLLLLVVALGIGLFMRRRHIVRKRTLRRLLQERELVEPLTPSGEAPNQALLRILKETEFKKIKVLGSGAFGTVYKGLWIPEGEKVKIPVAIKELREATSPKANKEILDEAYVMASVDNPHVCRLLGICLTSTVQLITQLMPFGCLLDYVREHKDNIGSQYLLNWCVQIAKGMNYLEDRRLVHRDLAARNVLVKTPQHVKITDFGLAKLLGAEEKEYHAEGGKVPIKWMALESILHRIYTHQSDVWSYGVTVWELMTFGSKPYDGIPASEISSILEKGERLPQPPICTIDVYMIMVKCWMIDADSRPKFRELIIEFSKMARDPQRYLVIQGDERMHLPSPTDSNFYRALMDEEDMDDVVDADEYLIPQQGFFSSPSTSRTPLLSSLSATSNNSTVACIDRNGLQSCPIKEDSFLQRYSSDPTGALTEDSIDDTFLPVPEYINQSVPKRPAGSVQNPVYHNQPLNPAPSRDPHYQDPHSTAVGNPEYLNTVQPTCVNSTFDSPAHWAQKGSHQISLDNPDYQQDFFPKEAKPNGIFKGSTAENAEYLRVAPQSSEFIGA
Chain of Interferon-induced, double-stranded RNA-activated protein kinase (Homo sapiens) (P19525 whole entry): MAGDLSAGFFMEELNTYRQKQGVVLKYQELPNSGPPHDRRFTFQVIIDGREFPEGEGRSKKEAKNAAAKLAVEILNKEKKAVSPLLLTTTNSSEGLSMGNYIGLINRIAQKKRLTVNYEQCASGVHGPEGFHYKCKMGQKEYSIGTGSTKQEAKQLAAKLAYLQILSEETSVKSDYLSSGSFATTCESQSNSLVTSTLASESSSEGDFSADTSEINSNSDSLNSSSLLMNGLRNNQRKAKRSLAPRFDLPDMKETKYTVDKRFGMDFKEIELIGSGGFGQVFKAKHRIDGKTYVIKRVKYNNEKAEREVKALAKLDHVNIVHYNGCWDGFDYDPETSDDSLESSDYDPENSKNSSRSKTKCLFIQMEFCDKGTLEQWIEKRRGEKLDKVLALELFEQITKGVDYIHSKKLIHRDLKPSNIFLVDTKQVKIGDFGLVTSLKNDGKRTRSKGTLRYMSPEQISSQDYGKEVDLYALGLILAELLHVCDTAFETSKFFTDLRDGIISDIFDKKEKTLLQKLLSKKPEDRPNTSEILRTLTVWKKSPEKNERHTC
Chain of MAP kinase-activated protein kinase 2 (P49137 whole entry, looked up): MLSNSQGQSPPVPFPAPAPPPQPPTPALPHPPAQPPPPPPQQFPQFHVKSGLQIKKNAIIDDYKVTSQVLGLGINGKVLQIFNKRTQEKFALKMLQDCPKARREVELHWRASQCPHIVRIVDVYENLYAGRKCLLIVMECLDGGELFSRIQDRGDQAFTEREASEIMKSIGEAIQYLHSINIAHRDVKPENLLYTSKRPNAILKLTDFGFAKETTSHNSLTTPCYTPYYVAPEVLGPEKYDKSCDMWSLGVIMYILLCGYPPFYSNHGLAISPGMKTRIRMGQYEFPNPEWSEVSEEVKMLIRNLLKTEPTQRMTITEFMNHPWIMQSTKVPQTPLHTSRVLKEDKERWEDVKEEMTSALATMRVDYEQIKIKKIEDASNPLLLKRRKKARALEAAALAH
Chain of D(3) dopamine receptor (P35462 whole entry): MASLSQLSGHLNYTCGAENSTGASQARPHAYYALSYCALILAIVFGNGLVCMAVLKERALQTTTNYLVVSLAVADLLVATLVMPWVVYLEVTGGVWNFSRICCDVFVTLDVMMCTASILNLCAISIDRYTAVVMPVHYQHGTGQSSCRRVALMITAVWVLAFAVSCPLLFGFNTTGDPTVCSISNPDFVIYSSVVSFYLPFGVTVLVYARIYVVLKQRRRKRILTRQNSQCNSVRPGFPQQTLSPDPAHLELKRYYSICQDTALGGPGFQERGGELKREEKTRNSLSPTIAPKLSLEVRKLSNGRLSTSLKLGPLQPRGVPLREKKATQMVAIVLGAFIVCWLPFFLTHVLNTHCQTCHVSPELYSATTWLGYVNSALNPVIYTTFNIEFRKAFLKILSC
Chain of Serine/threonine-protein kinase B-raf (Homo sapiens) (P15056 whole entry): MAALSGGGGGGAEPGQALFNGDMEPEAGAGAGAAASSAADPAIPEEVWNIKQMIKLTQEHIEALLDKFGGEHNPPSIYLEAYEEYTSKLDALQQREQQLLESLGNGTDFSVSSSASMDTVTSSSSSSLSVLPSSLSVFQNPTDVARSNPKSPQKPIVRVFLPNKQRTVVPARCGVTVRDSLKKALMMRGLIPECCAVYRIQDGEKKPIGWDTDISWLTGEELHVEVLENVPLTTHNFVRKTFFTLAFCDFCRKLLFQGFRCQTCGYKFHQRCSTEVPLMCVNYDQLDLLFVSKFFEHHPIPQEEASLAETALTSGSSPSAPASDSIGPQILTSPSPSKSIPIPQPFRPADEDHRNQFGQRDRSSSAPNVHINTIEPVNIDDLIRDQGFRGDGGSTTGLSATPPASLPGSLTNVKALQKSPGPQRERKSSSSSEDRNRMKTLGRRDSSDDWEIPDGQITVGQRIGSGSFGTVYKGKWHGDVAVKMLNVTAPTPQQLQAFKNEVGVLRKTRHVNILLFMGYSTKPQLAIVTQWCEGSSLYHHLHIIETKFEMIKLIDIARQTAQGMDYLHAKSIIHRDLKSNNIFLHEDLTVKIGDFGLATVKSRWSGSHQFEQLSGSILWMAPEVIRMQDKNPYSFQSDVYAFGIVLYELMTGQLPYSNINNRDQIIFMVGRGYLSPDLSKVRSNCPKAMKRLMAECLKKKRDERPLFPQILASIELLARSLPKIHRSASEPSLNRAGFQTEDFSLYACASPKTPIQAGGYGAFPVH
Chain of Serine/threonine-protein kinase 35 (Homo sapiens) (Q8TDR2 whole entry): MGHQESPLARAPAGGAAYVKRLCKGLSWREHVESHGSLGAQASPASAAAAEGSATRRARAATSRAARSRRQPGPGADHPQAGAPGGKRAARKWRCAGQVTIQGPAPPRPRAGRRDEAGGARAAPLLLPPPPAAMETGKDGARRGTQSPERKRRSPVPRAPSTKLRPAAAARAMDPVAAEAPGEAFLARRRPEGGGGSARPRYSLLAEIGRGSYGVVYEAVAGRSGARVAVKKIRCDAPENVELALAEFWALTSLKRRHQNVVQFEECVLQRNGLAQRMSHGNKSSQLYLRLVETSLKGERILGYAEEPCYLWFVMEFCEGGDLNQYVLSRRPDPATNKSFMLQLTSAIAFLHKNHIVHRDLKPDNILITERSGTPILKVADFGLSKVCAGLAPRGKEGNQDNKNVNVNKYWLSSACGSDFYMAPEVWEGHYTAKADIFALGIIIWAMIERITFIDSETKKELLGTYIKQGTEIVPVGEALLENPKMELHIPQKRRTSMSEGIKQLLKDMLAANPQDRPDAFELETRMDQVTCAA
Chain of Tyrosine-protein kinase Fyn (Homo sapiens) (P06241 2-537 limits assumed): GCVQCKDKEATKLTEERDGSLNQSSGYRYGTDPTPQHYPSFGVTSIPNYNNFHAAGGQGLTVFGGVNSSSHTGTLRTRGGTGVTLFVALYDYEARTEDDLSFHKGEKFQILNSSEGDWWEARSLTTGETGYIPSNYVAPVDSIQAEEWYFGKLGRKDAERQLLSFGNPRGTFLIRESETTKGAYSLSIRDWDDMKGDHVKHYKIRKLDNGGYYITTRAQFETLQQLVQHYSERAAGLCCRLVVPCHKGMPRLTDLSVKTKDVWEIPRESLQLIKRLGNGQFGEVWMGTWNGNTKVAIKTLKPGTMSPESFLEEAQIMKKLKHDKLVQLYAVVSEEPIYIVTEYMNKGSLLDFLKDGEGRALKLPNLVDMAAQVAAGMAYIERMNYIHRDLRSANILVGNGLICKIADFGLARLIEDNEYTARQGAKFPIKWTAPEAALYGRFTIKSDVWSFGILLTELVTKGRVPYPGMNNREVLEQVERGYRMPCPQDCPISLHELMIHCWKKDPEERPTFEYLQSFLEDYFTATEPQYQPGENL

CC(=O)Nc1cccc(-n2c(=O)n(C3CC3)c(=O)c3c(Nc4ccc(I)cc4F)n(C)c(=O)c(C)c32)c1
% of control [1]: 109%

Nc1cnc(N2CCc3cc(S(=O)(=O)Nc4c(F)cc(Cl)cc4F)cc(N4CCCC4=O)c32)nc1 [TP-020n]
% of control [2]: 100% | % of inhibition (D(3) dopamine receptor): 7.88%

CC(C)(O)[C@H](F)CN1Cc2cc(NC(=O)c3cnn4cccnc34)c(N3CCOCC3)cc2C1=O
dTM [3]: 0 K

C=CC(=O)Nc1ccc(C(=O)Nc2[nH]nc3c2CN(C(=O)N[C@H](CN(C)C)c2ccccc2)C3(C)C)cc1
% of engagement [4]: -6.4%

COCC(=O)NC/C=C/c1ccc2ncnc(Nc3ccc(Oc4ccc(C)nc4)c(C)c3)c2c1 [CP-724714]
% of control [5]: 96% | % of control [6]: 0.2%

CCC(=O)N1CCN(c2ccc(-n3c(=O)ccc4cnc5ccc(-c6cnc7ccccc7c6)cc5c43)cc2C(F)(F)F)CC1
% of control [7]: 18%

O[C@H]1CC[C@H](Nc2ncc3nc(Nc4c(F)cc(F)cc4F)n([C@H]4CCOC4)c3n2)CC1
% of control [8]: 91%

Cc1cc([C@@H](C)Nc2ccccc2C(=O)O)c2nc(N3CCOCC3)cc(=O)n2c1 [AZD-6482]
% of control [9]: 100%

Cc1cc(F)c(C(=O)Nc2cccc(-c3nncn3C(C)C)n2)cc1-n1cnc(C2CC2)c1
% of control [10]: 99% | % of control [11]: 97%

CNC(=O)Nc1ccc(-c2nc(N3CC4CCC(C3)O4)c3cnn(C4CCC5(CC4)OCCO5)c3n2)cc1
% of control [12]: 100% | % of control [13]: 68% | % of inhibition [14]: 11%

Cc1cc(C)cc([C@@H]2c3cc(C)ccc3NC(=O)CN2C(=O)c2ccc(Br)s2)c1
% of inhibition [15]: 12%
